Values quoted from earlier work as cited in patent US11491200B2, “Herbal compositions and methods for the prevention and treatment of nail infections” (Produits Naturels Mondias Inc., priority 2016, dated 2022).

System: onychomycosis
Details: mild-to-moderate onychomycosis; versus 3% for placebo

C=C1CCN([C@H](C)[C@](O)(Cn2cncn2)c2ccc(F)cc2F)CC1 [Jublia]
efficacy: 17%
